Source: patent US6528518B2, “Treatment of depression with kappa receptor antagonists” (The McLean Hospital Corporation, priority 2000, dated 2003)
Entries after “also recorded” stand apart in the source; their conditions may differ.

Columns and labels:
rats [1] = experiment: Forced swim test (FST), latency to become immobile on re-test; format: in vivo, rat; conditions: for Latencies to become immobile on the re-test day in the FST: standard antidepressants vs vehicle (0 mg/kg), FIG. 3A; for Latencies to become immobile in the FST: kappa antagonist given ICV (norBNI 5.0 or 20 μg), FIG. 5 and 6A
Method: Another symptom of clinical depression that can be modeled in rats is despair, a feeling of hopelessness. Symptoms of despair can be induced in rats using the forced swim test (FST), a highly validated model used to study antidepressant treatments.
The FST is a two day procedure in which rats swim under conditions in which escape is not possible. On the first day, the rats are forced to swim for 15 minutes. The rats initially search for an escape from the water, but eventually adopt a posture of immobility in which they make only the movements necessary to keep their heads above water. Upon re-testing one day later, latencies to become immobile—an indicator of how rapidly the rats “give up” in response to a familiar stressor—are decreased, which is inferred as despair. Standard antidepressants such as desipramine (DMI) and fluoxetine (FLX) extend latencies to become immobile. Drug efficacy in this animal model is predictive of antidepressant efficacy in humans.
CREB-mediated increases in dynorphin expression within the NAc underlie the decreases in the pleasurable effects of cocaine in the place conditioning paradigm: blockade of brain kappa opioid receptors (on which dynorphin acts) eliminates CREB-induced aversion to cocaine. To determine whether disruption of dynorphin function also eliminates CREB-induced despair in the FST, brain kappa receptors were blocked with either norBNI (nor-binaltorphimine) or GNTI (5′-guanidinyl-17-(cyclopropylmethyl)-6,7-dehydro-4,5α-epoxy-3,14-dihydroxy-6,7-2′,3′-indolomorphinan). […] As with CREB-induced anhedonia, dynorphin is critically involved in CREB-induced despair. Furthermore, they indicate that disruption of CREB function in this region may have antidepressant actions.

rats [2] = experiment: Locomotor activity in automated activity chambers 24 hours after first FST; conditions: for Activity: high doses, vs vehicle (0 mg/kg), FIG. 3B; for Locomotor effects / non-specific motor function: after ICV injection, vs vehicle control, FIG. 6B
Method: To examine the effects of gene transfer and antidepressant therapy on locomotor activity, groups of rats were tested for 1 hour in automated activity chambers 24 hours after the first FST.

[3] = following systemic administration; cited from earlier work
[4] = humans; cited from earlier work
rats [5] = experiment: Cocaine place conditioning after HSV gene transfer into the NAc; format: in vivo, rat; conditions: cocaine 5.0 mg/kg IP, FIG. 2B
Method: Place conditioning was performed in a three compartment apparatus. During screening (day 0), rats were placed in the small (12×18×33 cm) central compartment and were allowed to explore the entire apparatus for 30 minutes. The compartments differed in floor texture, wall striping, and lighting. Rats showing no baseline preference were used for the study. Rats received bilateral microinjections (2.0 μl per side) at AP+1.7 mm, Lat±2.3 mm, and DV 6.8 mm. Injections were made over 10 minutes using a 26 gauge needle.
Behavioral testing began on day 3 after vector injection. On the first conditioning trial of each day, rats received saline (1 ml/kg, i.p.) and were confined to one of the large (24×18×33 cm) side compartments of the apparatus. After three hours, rats received cocaine (1.25 mg/kg, i.p.) and were confined to the other side compartment. Three types of conditioning session were used: a one hour pairing session where the animals were placed immediately into the apparatus immediately after treatment for one hour; 15 minute pairing session where the animals were placed immediately into the apparatus immediately after treatment for 15 minutes; or a delayed pairing session where the animals were placed in the apparatus for one hour following a 15 minute delay from drug exposure. […]

Structure (SMILES) | Latencies to become immobile on the re-test day in the FST (rats [1]) | Activity (rats [2]) | Penetration of the blood-brain-barrier [3] | Latencies to become immobile in the FST (rats [1]) | Locomotor effects / non-specific motor function (rats [2]) | also measured
CNCCCN1c2ccccc2CCc2ccccc21 [DMI, desipramine] | increased | decreased by high doses | – | – | – | –
CNCCC(Oc1ccc(C(F)(F)F)cc1)c1ccccc1 (stereo not drawn) [FLX, fluoxetine] | increased | decreased by high doses | – | – | – | –
NC(N)=Nc1ccc2[nH]c3c(c2c1)C[C@@]1(O)[C@H]2Cc4ccc(O)c5c4[C@@]1(CCN2CC1CC1)[C@H]3O5 [GNTI, 5′-guanidinyl-17-(cyclopropylmethyl)-6,7-dehydro-4,5α-epoxy-3,14-dihydroxy-6,7-2′,3′-indolomorphinan] | – | – | neither compound can penetrate the blood-brain-barrier | significantly longer latencies than the control group; also recorded: dose-dependently increased latencies to become immobile | Neither compound affected non-specific motor function | Potency relative to norBNI for increasing latencies to become immobile in the FST (rats [1]; ICV, FIG. 6A): roughly equipotent to norBNI
CN1Cc2c(N)cccc2C(c2ccccc2)C1 (stereo not drawn) [Nomifensine] | – | – | – | – | – | Adverse reactions [4]: caused lethal allergic reactions in some people; Antidepressant efficacy in the clinic [4]: clinically effective antidepressant
COC(=O)[C@H]1[C@@H](OC(=O)c2ccccc2)C[C@@H]2CC[C@H]1N2C [cocaine] | – | – | – | – | – | Place preference, time spent in cocaine-associated environments (rats [5]; HSV-CREB group): no effect; Place preference, time spent in cocaine-associated environments (rats [5]; HSV-mCREB and vehicle groups): ~600 s
Oc1ccc2c3c1O[C@H]1c4[nH]c5c(c4C[C@@]4(O)[C@@H](C2)N(CC2CC2)CC[C@]314)C[C@@]1(O)[C@H]2Cc3ccc(O)c4c3[C@@]1(CCN2CC1CC1)[C@H]5O4 [norBNI, nor-binaltorphimine] | – | – | neither compound can penetrate the blood-brain-barrier | dose-dependently increased latencies to become immobile; also recorded: significantly longer latencies than the control group | Neither compound affected non-specific motor function | –
